Values belong to the molecule of their own block, whether it stands above or below them.
Columns and labels:
[1] = target: GST-RhoBTB3 Rho domain (residues 1-220) (Homo sapiens, UniProt O94955, N138D); experiment: [γ-32P]ATP hydrolysis; assay type: biochemical; details: MgCl2; labelled compound; 20 nM protein
[2] = target: T1, TIP47 (endogenous, K562) (human (endogenous in K562)), O60664; experiment: native gel or EMSA; details: remark: other sources report otherwise
T1 chain: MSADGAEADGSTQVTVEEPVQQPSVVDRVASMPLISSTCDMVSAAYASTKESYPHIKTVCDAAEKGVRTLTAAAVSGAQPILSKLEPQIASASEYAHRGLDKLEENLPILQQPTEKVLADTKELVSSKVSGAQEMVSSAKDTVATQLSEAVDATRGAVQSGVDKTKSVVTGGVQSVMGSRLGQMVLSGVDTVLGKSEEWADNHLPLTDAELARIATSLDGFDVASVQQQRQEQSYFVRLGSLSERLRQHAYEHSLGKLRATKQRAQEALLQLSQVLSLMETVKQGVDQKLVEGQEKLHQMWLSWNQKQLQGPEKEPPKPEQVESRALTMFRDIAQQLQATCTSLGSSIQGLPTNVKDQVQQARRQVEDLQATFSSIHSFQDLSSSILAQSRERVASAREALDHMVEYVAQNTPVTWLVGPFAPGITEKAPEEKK

Sequence of GST-RhoBTB3 Rho domain (residues 1-220) (O94955 1-220 N138D): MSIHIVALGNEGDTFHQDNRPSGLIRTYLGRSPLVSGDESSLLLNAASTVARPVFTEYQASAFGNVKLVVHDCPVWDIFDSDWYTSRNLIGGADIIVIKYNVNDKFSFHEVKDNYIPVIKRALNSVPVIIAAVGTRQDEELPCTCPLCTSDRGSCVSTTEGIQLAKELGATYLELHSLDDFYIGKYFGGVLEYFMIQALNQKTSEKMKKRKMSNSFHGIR

Molecule: Nc1ncnc2c1ncn2[C@@H]1O[C@H](COP(=O)(O)OP(=O)(O)OP(=O)(O)O)[C@@H](O)[C@H]1O [ATP]
[γ-32P]ATP hydrolysis [1]: reverted to the D found in most other small GTPases (N138D), significantly less binding

stoichiometry N [2]: 2
B1: TIP47 (endogenous, K562), O60664 1-434 (natural protein)
chain: T1 chain

From paper PMC2801561 (Cell, 2009)
